# Experimental data reported in patent publication US12246009B2, “Compositions and methods for treating neurodegenerative, myodegenerative, and lysosomal storage disorders” (GEORGETOWN UNIVERSITY, priority 2018, dated 2025).
# Entries after “also recorded” stand apart in the source; their conditions may differ.
# How the values were obtained:
# A53T mice = experiment: Open field test in A53T mice; format: in vivo, mouse; conditions: 60-minute trial
# Ab1 [1] = molecular target: T1, Ab1 (Mus musculus, UniProt P00520); experiment: Activated (phosphorylated) Ab1 (245) immunoblot in transgenic APP mice; format: in vivo; conditions: i.p., 21 days
# T1 construct: Brains from treated mice compared with DMSO treated mice were homogenized in STEN lysis buffer; from tissue; host or cells: brain of rTg4510 or TgAPP mice
# T1 sequence (P00520 whole entry): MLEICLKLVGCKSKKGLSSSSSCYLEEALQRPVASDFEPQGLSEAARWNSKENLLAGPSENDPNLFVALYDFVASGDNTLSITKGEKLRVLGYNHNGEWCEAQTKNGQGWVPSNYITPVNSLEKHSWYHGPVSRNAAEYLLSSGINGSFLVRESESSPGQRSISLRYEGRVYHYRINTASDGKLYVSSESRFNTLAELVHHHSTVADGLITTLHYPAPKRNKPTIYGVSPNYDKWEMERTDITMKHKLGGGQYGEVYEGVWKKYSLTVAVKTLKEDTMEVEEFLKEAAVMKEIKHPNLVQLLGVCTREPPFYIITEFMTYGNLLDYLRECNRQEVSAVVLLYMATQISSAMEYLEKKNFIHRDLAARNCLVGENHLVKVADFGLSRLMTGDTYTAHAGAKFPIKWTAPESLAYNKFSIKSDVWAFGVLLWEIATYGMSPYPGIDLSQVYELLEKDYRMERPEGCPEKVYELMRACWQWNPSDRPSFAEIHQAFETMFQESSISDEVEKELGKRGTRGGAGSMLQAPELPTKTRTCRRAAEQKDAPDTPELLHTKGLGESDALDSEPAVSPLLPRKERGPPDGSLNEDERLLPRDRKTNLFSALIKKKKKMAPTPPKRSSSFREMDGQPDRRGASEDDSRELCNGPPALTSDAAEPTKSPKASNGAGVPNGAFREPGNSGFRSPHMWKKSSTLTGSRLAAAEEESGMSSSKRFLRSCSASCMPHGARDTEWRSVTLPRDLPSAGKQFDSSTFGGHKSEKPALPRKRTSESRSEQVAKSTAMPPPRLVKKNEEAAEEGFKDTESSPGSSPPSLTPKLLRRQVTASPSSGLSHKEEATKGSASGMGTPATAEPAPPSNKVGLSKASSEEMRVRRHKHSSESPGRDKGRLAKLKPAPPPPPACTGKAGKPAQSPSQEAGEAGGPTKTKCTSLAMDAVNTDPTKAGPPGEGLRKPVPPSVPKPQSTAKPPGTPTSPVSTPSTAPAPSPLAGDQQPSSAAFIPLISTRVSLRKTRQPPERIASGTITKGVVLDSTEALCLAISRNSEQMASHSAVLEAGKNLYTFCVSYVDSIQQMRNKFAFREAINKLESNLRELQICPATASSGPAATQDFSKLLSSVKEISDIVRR
# hippocampus of APP mice = experiment: Nissl staining of hippocampal sections of APP mice (cell death); conditions: 1.25 mg/kg and 2.5 mg/kg
# DDR1 [2] = molecular target: T2, DDR1 (Mus musculus, UniProt Q03146); experiment: Phosphorylated DDR1 immunoblot in transgenic APP mice; format: in vivo; conditions: 21 days
# T2 construct: Brains were collected and homogenized in 1.0 ml 1× STEN buffer; from tissue; host or cells: brain of rTg4510 or TgAPP mice
# T2 sequence (Q03146 20-911): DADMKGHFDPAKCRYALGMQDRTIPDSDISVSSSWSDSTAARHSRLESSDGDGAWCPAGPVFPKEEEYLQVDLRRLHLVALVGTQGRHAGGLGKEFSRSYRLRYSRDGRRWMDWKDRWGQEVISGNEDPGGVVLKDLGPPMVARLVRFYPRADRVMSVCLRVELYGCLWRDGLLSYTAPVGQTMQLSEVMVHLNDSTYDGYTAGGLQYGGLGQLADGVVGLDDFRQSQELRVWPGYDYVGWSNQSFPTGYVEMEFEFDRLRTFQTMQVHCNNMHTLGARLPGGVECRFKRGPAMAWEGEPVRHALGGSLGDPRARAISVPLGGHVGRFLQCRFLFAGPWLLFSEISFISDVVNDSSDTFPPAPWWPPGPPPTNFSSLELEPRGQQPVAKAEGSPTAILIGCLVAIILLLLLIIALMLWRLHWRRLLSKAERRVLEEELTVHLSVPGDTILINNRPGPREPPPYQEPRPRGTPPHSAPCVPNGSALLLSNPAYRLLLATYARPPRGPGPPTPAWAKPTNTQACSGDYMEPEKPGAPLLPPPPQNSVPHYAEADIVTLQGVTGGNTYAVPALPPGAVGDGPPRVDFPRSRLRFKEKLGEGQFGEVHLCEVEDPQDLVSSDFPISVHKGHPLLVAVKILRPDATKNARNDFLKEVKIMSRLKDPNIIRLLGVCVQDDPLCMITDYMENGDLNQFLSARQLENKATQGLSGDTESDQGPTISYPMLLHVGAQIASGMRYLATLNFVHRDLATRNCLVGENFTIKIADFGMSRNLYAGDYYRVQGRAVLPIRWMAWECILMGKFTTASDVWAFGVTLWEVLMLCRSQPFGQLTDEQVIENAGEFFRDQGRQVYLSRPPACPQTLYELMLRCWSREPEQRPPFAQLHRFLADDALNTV
# Tau (HT7) = Tau (HT7) in Tau transgenic mice; format: in vivo, mouse; conditions: seven days of treatment, 1.25 mg/kg and 2.5 mg/kg
# pTau (181) [3] = experiment: pTau (181) ELISA/Xmap in Tau expressing transgenic (rTG4510) mice; format: in vivo, mouse
# phosphorylated Tau (AT8) = experiment: Phosphorylated Tau (AT8) immunoblot in rTG4510 mice; format: in vivo, mouse; conditions: all three doses (1.25, 2.5, 5 mg/kg) i.p., 7 days
# DDR1 [4] = molecular target: T2, DDR1; experiment: Phosphorylated (active) DDR1 (pMCK10) immunoblot in rTG4510 mice; format: in vivo; conditions: for phosphorylated (active) DDR1 (pMCK10), immunoblot: 1.25 mg/kg or 2.5 mg/kg i.p.
# [5] = tested on: human phosphorylated tau (Ser396); experiment: Human phosphorylated tau (Ser396) ELISA in transgenic APP mice; format: in vivo, mouse; conditions: 2.5 mg/kg i.p., 21 days
# B35 cells = experiment: MTT assay, cell viability; format: cell-based, rat; conditions: 1 μM, 16 hours of treatment, compared to control
# Protocol: Rat neuroblastoma B35 cells were grown in Dulbecco's Modified Eagle's Medium (DMEM) with 10% Fetal Bovine Serum (FBS) and 1% penicillin/streptomycin and incubated at 37° C. with 5% CO2. For the experiments, cells were transferred to 12-well plates (Cat. #150628, ThermoFisher, Waltham, MA) and grown to at least 70% confluence. Transient transfection was performed with 3 μg P301 L tau (Cat. #30145, Addgene) cDNA or 3 μg human α-synuclein cDNA using Fugene HD transfection reagent (Cat. #E2311, Promega, Madison WI) for 24 hours. Cells were treated with 1 mM, 100 μM, 10 μM, 1 μM, 0.1 μM, 0.01 μM, and 0.001 μM dissolved in DMSO or an equivalent 5 ul of DMSO for 5 hours. Cell culture media was collected and cells were harvested using sodium-tris, EDTA, NP-40 (STEN) buffer and centrifuged at 10,000×g for 20 minutes at 4′C and supernatant was collected. Cell viability was determined via lactate dehydrogenase assay (Cat. #88954, Thermofisher) and MTT assay (Cat. #V13154, Thermofisher). […]
# To measure cell viability, cells were incubated with 500 μL of Dulbecco's Modified Eagle's Medium (DMEM) containing 50 μL of (3-[4,5-dimethylthiazol-2-yl]-2,5-diphenyl-tetrazolium bromide (MTT)) for 4 hours at 37° C. and 5% CO2. […] Absorbance was read against a blank containing 125 uL of media and MTT, and 250 uL of DMS at 570 nm.
# Ab1 [6] = molecular target: T1, Ab1; experiment: Activated Ab1 immunoblot in rTG4510 mice; format: in vivo; conditions: rTG4510 mice, 1.25, 2.5 or 5 mg/kg i.p., 7 days
# pTau (181) [7] = experiment: pTau (181) ELISA in pTau transfected B35 cells; format: cell-based, rat; conditions: 24 hour transfection
compound,measurement,setting,value
"Cc1cccc(-c2cc3nccc(Nc4ccccc4)c3s2)c1 [BK40143, N-Phenyl-2-(m-tolyl)thieno[3,2-b]pyridin-7-amine]","total distance travelled, open field",A53T mice,did not show any difference
same,"total time spent moving, open field",A53T mice,did not show any difference
same,"velocity of movements, open field",A53T mice,significantly increased
same,activated (phosphorylated) Ab1 (245),Ab1 [1],does not engage Ab1; also recorded: did not engage Ab1
same,cell death in the hippocampus (Nissl staining intensity),hippocampus of APP mice,does not cause cell death
same,deactivation of DDR1 (phosphorylated DDR1 immunoblot),DDR1 [2]; 1.25 mg/kg i.p.,40%
same,deactivation of DDR1 (phosphorylated DDR1 immunoblot),DDR1 [2]; 2.5 mg/kg i.p.,31%
same,Tau (HT7) level,Tau (HT7),significantly reduced
same,"pTau (181) level, ELISA","pTau (181) [3]; Tau expressing transgenic mice, seven days of treatment",reduces pTau (181)
same,"phosphorylated Tau (AT181), ELISA","pTau (181) [3]; rTG4510 mice, 2.5 mg/kg i.p., 7 consecutive days, 2.5 mg/kg",significantly reduced phosphorylated Tau
same,"reduction of phosphorylated Tau (AT8), immunoblot",phosphorylated Tau (AT8),41-49%
same,"phosphorylated (active) DDR1 (pMCK10), immunoblot","DDR1 [4]; rTG4510 mice, 7 days",deactivated DDR; also recorded: deactivated DDR1
same,"phosphorylated (active) DDR1 (pMCK10), immunoblot","DDR1 [4]; rTG4510 mice, 7 days, listed as BK-40143",in vivo inhibition of DDR1
same,deactivation of DDR1 (phosphorylated DDR1 immunoblot),"DDR1 [4]; rTG4510 mice, 5 mg/kg i.p., 7 days",not
same,deactivation of DDRs,"DDR1 [4]; rTG4510 tauopathy mouse model, i.p., 7 consecutive days",about 50%
same,reduction of human phosphorylated tau (Ser396),[5],over 80%
same,"MTT, neuroprotective effect",B35 cells,increase
same,"activated Ab1, immunoblot",Ab1 [6],did not engage
same,"activated Ab1, immunoblot",Ab1 [6]; listed as BK-40143,does not engage
same,pTau (181) levels,pTau (181) [7],reduces pTau (181) levels
